Experimental data as given in patent US11753430B2, “Method of making cobalt compounds for feed supplements” (Vitalix, Inc., priority 2021, dated 2023).

Experiment: surface area of crystals formed with and without sonication
Type: physicochemical
Procedure: The method can also include a step of forming a premix, including the substeps of adding, after the step of dissolving, gluconic acid to provide an almost 1:1 premix mixture of cobalt acetate and cobalt gluconate compounds, and then sonicating the premix mixture. The premix remained in solution at 15° C. for over ten days. When additional gluconic acid (1.1 eq of total gluconic acid to acetic acid) was added, and gently mixed, within a half hour precipitation of very fine cobalt gluconate crystals occurred.

cobalt gluconate
surface area relative to that observed with sonication: less than 20 times
